The test system of the series is PCSK9 mRNA. It is filed as cell-based, human. The note with it: Hep3B cells, 100 nM, relative to untreated control cells; for % Inhib (PCSK9 mRNA): 0 = no reduction observed. On the procedure:
When cells reached appropriate confluency, they were treated with oligonucleotide using LIPOFECTIN® as described. […] Cells were treated and data were obtained in duplicate or triplicate. […] Cells were harvested 16-24 hours after oligonucleotide treatment.
Short antisense compounds targeted to a PCSK9 nucleic acid were tested for their effects on PCSK9 mRNA in vitro. The Isis No, gapmer motif and SEQ ID NO of each short antisense compound are shown again in Table 75. Cultured Hep3B cells were treated with 100 nM of short antisense compound. 5-10-5 MOE gapmers targeted to a PCSK9 nucleic acid were used as positive controls. After the treatment period, RNA was isolated from the cells and PCSK9 mRNA levels were measured by quantitative real-time PCR, as described herein. PCSK9 mRNA levels were adjusted according to total RNA content as measured by RIBOGREEN®. Results are presented in Table 75 as percent inhibition of PCSK9 (% Inhib), relative to untreated control cells.

Strand notation (5' to 3'): a small letter for the sugar, then the base; units joined by * are phosphorothioate-linked, units joined directly phosphodiester-linked; [ ] holds rarer units or linkages, { } end groups; capitals alone tell only the bases. e = 2'-O-(2-methoxyethyl) (MOE); [5mC] = 5-methylcytosine; d = 2'-deoxy (DNA)

With “400318 (e[5mC]*e[5mC]*dT*dA*dT*dG*dA*dG*dG*dG*dT*dG*e[5mC]*e[5mC]; antisense) [compound 400318]”, the “% Inhibition Range (PCSK9 mRNA)” value was 20-30% and the “% Inhib (PCSK9 mRNA)” value stood at 26%.

For the substance “400319 (e[5mC]*eG*dA*dA*dT*dA*dA*dA*d[5mC]*dT*d[5mC]*d[5mC]*eA*eG; antisense) [compound 400319]”, the “% Inhib (PCSK9 mRNA)” value worked out at 0%. Still for that read-out and setting: under “400320 (e[5mC]*e[5mC]*dG*dA*dA*dT*dA*dA*dA*d[5mC]*dT*d[5mC]*e[5mC]*eA; antisense) [compound 400320]” stands 0%; under “400321 (eT*e[5mC]*d[5mC]*dG*dA*dA*dT*dA*dA*dA*d[5mC]*dT*e[5mC]*e[5mC]; antisense) [compound 400321]”, 0%. For “400322 (eT*eT*d[5mC]*d[5mC]*dG*dA*dA*dT*dA*dA*dA*d[5mC]*eT*e[5mC]; antisense) [compound 400322]”, the “% Inhib (PCSK9 mRNA)” value came to 0%. With “400323 (eG*e[5mC]*d[5mC]*dA*dG*dG*dG*dG*d[5mC]*dA*dG*d[5mC]*eA*eG; antisense) [compound 400323]”, the “% Inhib (PCSK9 mRNA)” value worked out at 0%. The same measure, in the same setting: to “400324 (eG*eA*dG*dT*dA*dG*dA*dG*dG*d[5mC]*dA*dG*eG*e[5mC]; antisense) [compound 400324]” belongs 7%. As for “400325 (e[5mC]*e[5mC]*d[5mC]*d[5mC]*dA*dA*dA*dG*dT*d[5mC]*d[5mC]*d[5mC]*e[5mC]*eA; antisense) [compound 400325]”, the “% Inhib (PCSK9 mRNA)” value is recorded as 4%. Same read-out and setting: under “400326 (eT*e[5mC]*d[5mC]*d[5mC]*d[5mC]*dA*dA*dA*dG*dT*d[5mC]*d[5mC]*e[5mC]*e[5mC]; antisense) [compound 400326]” stands 0%. “400328 (eA*e[5mC]*dG*dT*dG*dG*dG*d[5mC]*dA*dG*d[5mC]*dA*eG*e[5mC]; antisense) [compound 400328]”: the “% Inhibition Range (PCSK9 mRNA)” value is 10-20% and the “% Inhib (PCSK9 mRNA)” value is 13%. For “400329 (e[5mC]*eA*d[5mC]*dG*dT*dG*dG*dG*d[5mC]*dA*dG*d[5mC]*eA*eG; antisense) [compound 400329]”, in that order: 10-20% and 14%. For the substance “400332 (e[5mC]*eA*dG*dG*dG*dA*dA*d[5mC]*d[5mC]*dA*dG*dG*e[5mC]*e[5mC]; antisense) [compound 400332]”, the “% Inhib (PCSK9 mRNA)” value is recorded as 0%. Same read-out and setting: to “400333 (eT*e[5mC]*dA*dG*dG*dG*dA*dA*d[5mC]*d[5mC]*dA*dG*eG*e[5mC]; antisense) [compound 400333]” belongs 0%; to “400334 (e[5mC]*eT*d[5mC]*dA*dG*dG*dG*dA*dA*d[5mC]*d[5mC]*dA*eG*eG; antisense) [compound 400334]”, 0%; to “400335 (e[5mC]*e[5mC]*dT*d[5mC]*dA*dG*dG*dG*dA*dA*d[5mC]*d[5mC]*eA*eG; antisense) [compound 400335]”, 0%. The same measure, in the same setting: under “400336 (eT*e[5mC]*d[5mC]*dT*d[5mC]*dA*dG*dG*dG*dA*dA*d[5mC]*e[5mC]*eA; antisense) [compound 400336]” stands 4%; under “400337 (eG*eT*d[5mC]*d[5mC]*dT*d[5mC]*dA*dG*dG*dG*dA*dA*e[5mC]*e[5mC]; antisense) [compound 400337]”, 0%; under “400338 (eG*eG*dT*d[5mC]*d[5mC]*dT*d[5mC]*dA*dG*dG*dG*dA*eA*e[5mC]; antisense) [compound 400338]”, 9%. The same measure, in the same setting: under “400339 (eT*eG*dG*dT*d[5mC]*d[5mC]*dT*d[5mC]*dA*dG*dG*dG*eA*eA; antisense) [compound 400339]” stands 0%; under “400340 (e[5mC]*eT*dG*dG*dT*d[5mC]*d[5mC]*dT*d[5mC]*dA*dG*dG*eG*eA; antisense) [compound 400340]”, 0%; under “400341 (eG*e[5mC]*dT*dG*dG*dT*d[5mC]*d[5mC]*dT*d[5mC]*dA*dG*eG*eG; antisense) [compound 400341]”, 0%.

Take “400342 (eG*eT*dG*d[5mC]*dT*dG*dG*dG*dG*dG*dG*d[5mC]*eA*eG; antisense) [compound 400342]”: the “% Inhib (PCSK9 mRNA)” value is recorded as 0%. The same measure, in the same setting: to “400343 (eG*eG*dT*dG*d[5mC]*dT*dG*dG*dG*dG*dG*dG*e[5mC]*eA; antisense) [compound 400343]” belongs 0%; to “400344 (eG*eG*dG*dT*dG*d[5mC]*dT*dG*dG*dG*dG*dG*eG*e[5mC]; antisense) [compound 400344]”, 0%; to “400345 (eT*eG*dG*dG*dT*dG*d[5mC]*dT*dG*dG*dG*dG*eG*eG; antisense) [compound 400345]”, 0%. “400346 (eG*eA*dG*d[5mC]*dA*dG*d[5mC]*dT*d[5mC]*dA*dG*d[5mC]*eA*eG; antisense) [compound 400346]”: the “% Inhib (PCSK9 mRNA)” value came out at 5%.

“400347 (antisense eG*eG*dA*dG*d[5mC]*dA*dG*d[5mC]*dT*d[5mC]*dA*dG*e[5mC]*eA) [compound 400347]”: the “% Inhib (PCSK9 mRNA)” value is reported as 0%. In the case of “400348 (antisense eT*eG*dG*dA*dG*d[5mC]*dA*dG*d[5mC]*dT*d[5mC]*dA*eG*e[5mC]) [compound 400348]”, the “% Inhib (PCSK9 mRNA)” value turned out to be 0%.

“400349 (antisense e[5mC]*eT*dG*dG*dA*dG*d[5mC]*dA*dG*d[5mC]*dT*d[5mC]*eA*eG) [compound 400349]”: the “% Inhibition Range (PCSK9 mRNA)” value was 10-20% and the “% Inhib (PCSK9 mRNA)” value amounted to 13%. For “400350 (antisense e[5mC]*e[5mC]*d[5mC]*dT*d[5mC]*dA*d[5mC]*d[5mC]*d[5mC]*d[5mC]*d[5mC]*dA*eA*eA) [compound 400350]”, in that order: 10-20% and 15%.

In the case of “400351 (antisense eA*e[5mC]*d[5mC]*d[5mC]*dT*d[5mC]*dA*d[5mC]*d[5mC]*d[5mC]*d[5mC]*d[5mC]*eA*eA) [compound 400351]”, the “% Inhibition Range (PCSK9 mRNA)” value was 10-20% and the “% Inhib (PCSK9 mRNA)” value stood at 14%. “400354 (antisense eG*eA*d[5mC]*dA*d[5mC]*d[5mC]*d[5mC]*dT*d[5mC]*dA*d[5mC]*d[5mC]*e[5mC]*e[5mC]) [compound 400354]”: the “% Inhibition Range (PCSK9 mRNA)” value was 10-20% and the “% Inhib (PCSK9 mRNA)” value is listed as 19%. As for “400355 (antisense eA*eG*dA*d[5mC]*dA*d[5mC]*d[5mC]*d[5mC]*dT*d[5mC]*dA*d[5mC]*e[5mC]*e[5mC]) [compound 400355]”, the “% Inhib (PCSK9 mRNA)” value amounted to 0%. Consider “400356 (antisense eT*eA*dG*dA*d[5mC]*dA*d[5mC]*d[5mC]*d[5mC]*dT*d[5mC]*dA*e[5mC]*e[5mC]) [compound 400356]”, for which the “% Inhib (PCSK9 mRNA)” value was 0%. For “400357 (antisense eT*eG*dG*d[5mC]*dA*dG*d[5mC]*dA*dG*dG*dA*dA*eG*e[5mC]) [compound 400357]”, the “% Inhib (PCSK9 mRNA)” value is reported as 0%. For “400358 (antisense eA*eT*dG*dG*d[5mC]*dA*dG*d[5mC]*dA*dG*dG*dA*eA*eG) [compound 400358]”, the “% Inhibition Range (PCSK9 mRNA)” value was 10-20% and the “% Inhib (PCSK9 mRNA)” value is 12%. As to “400359 (antisense e[5mC]*eA*dT*dG*dG*d[5mC]*dA*dG*d[5mC]*dA*dG*dG*eA*eA) [compound 400359]”, the “% Inhib (PCSK9 mRNA)” value was determined as 0%. As for “400360 (antisense eG*e[5mC]*dA*dT*dG*dG*d[5mC]*dA*dG*d[5mC]*dA*dG*eG*eA) [compound 400360]”, the “% Inhibition Range (PCSK9 mRNA)” value is recorded as 30-40% and the “% Inhib (PCSK9 mRNA)” value worked out at 38%. For the substance “400361 (antisense eG*eG*d[5mC]*dA*dG*d[5mC]*dA*dG*dA*dT*dG*dG*e[5mC]*eA) [compound 400361]”, the “% Inhib (PCSK9 mRNA)” value is 2%. For “400362 (antisense e[5mC]*eG*dG*d[5mC]*dA*dG*d[5mC]*dA*dG*dA*dT*dG*eG*e[5mC]) [compound 400362]”, the “% Inhibition Range (PCSK9 mRNA)” value is listed as 10-20% and the “% Inhib (PCSK9 mRNA)” value worked out at 16%.

Take “400363 (antisense e[5mC]*e[5mC]*dG*dG*d[5mC]*dA*dG*d[5mC]*dA*dG*dA*dT*eG*eG) [compound 400363]”: the “% Inhib (PCSK9 mRNA)” value is 8%. Still for that read-out and setting: to “400364 (antisense eT*e[5mC]*d[5mC]*dG*dG*d[5mC]*dA*dG*d[5mC]*dA*dG*dA*eT*eG) [compound 400364]” belongs 0%. For “400365 (antisense e[5mC]*eT*d[5mC]*d[5mC]*dG*dG*d[5mC]*dA*dG*d[5mC]*dA*dG*eA*eT) [compound 400365]”, the “% Inhibition Range (PCSK9 mRNA)” value is 20-30% and the “% Inhib (PCSK9 mRNA)” value is 25%. In the same order, the values of “400366 (antisense eG*e[5mC]*dT*d[5mC]*d[5mC]*dG*dG*d[5mC]*dA*dG*d[5mC]*dA*eG*eA) [compound 400366]” are 10-20% and 15%. Turning to “400367 (antisense eG*eG*d[5mC]*dT*d[5mC]*d[5mC]*dG*dG*d[5mC]*dA*dG*d[5mC]*eA*eG) [compound 400367]”, the “% Inhibition Range (PCSK9 mRNA)” value is 10-20% and the “% Inhib (PCSK9 mRNA)” value amounted to 12%. For “400368 (antisense e[5mC]*eG*dG*d[5mC]*dT*d[5mC]*d[5mC]*dG*dG*d[5mC]*dA*dG*e[5mC]*eA) [compound 400368]”, in that order: 10-20% and 11%.

These data come from patent publication US8188059B2, “Compounds and methods for modulating expression of GCGR” (Isis Pharmaceuticals, Inc., priority 2006, dated 2012).
